Experimental data taken from US7518005B2, “Water-soluble anti-dandruff compounds and compositions thereof” (Galaxy Surfactants Limited, priority 2005, dated 2009).

Key:
M. furfur [1] = test: Zone of inhibition of M. furfur in SLES, comparison with Undecylenic amido propyl betain (Example 7); assay type: cell-based
Text: Undecylenic amido propyl betain is a reported anti-dandruff product, so Undecylenic amidopropyl dimethyl Hydroxy ethyl ammonium undecylenate was compared. Carried out of zone of inhibition of M. furfur against 1, 2%, 5% & 7% Undecylenic amido propyl betain in SLES and compared it with Undecylenic amido propyl dimethyl Hydroxy ethyl ammonium undecylenate

M. furfur [2] = test: Zone of inhibition against M. furfur, comparison with other known anti-dandruff agents (Example 5); assay type: cell-based
Text: M. furfur is one of the microorganism, which causes dandruff Method of Analysis: Zone of Inhibition Principle: Larger the zone of inhibition greater is the anti-dandruff activity.

[3] = Viscosity booster effect in shampoo formulation; settings: 15% active sodium lauryl ether sulfate, 2% booster

Molecule | Comments (M. furfur [2]; Concent. 0.5%) | Zone of inhibition in mm (M. furfur [2]; Concent. 0.5%) [mm] | Comments (M. furfur [2]; Concent. 1%) | Zone of inhibition in mm (M. furfur [2]; Concent. 1%) [mm] | Comments (M. furfur [2]; Concent. 1.5%) | Zone of inhibition in mm (M. furfur [2]; Concent. 1.5%) [mm] | Comments (M. furfur [2]; Concent. 2%) | Zone of inhibition in mm (M. furfur [2]; Concent. 2%) [mm] | further results
C=CCCCCCCCCC(=O)NCCC[N+](C)(C)CC(=O)[O-] [Undecylenic amidopropyl betaine] | – | – | – | – | – | – | – | – | Comments (M. furfur [1]; 1%): Less; Zone of inhibition in mm (M. furfur [1]; 1%): 3 mm; Comments (M. furfur [1]; 2%): Less; Zone of inhibition in mm (M. furfur [1]; 2%): 6 mm; Comments (M. furfur [1]; 5%): Less; Zone of inhibition in mm (M. furfur [1]; 5%): 6 mm; Comments (M. furfur [1]; 7%): Effective; Zone of inhibition in mm (M. furfur [1]; 7%): 8 mm
C=CCCCCCCCCC(=O)NCCC[N+](C)(C)CCOCCO.[Cl-] [Undecylenic amidopropyl dimethyl Hydroxy ethoxy ethyl ammonium chloride] | Less | 2 | Less | 3 | Less | 6 | Effective | 8 | –
C=CCCCCCCCCC(=O)NCCO [Undecylenic mono ethanolamide] | Not effective | 0 | Less | 2 | Less | 4 | Less | 6 | –
Cocomonoethanolamide [CMEA] | – | – | – | – | – | – | – | – | Viscosity in cps at 28° C. ([3]; Sodium chloride 0.5%): 55 cps; Viscosity in cps at 28° C. ([3]; Sodium chloride 1.0%): 600 cps; Viscosity in cps at 28° C. ([3]; Sodium chloride 1.5%): 3000 cps; Viscosity in cps at 28° C. ([3]; Sodium chloride 2.0%): 11000 cps; Viscosity in cps at 28° C. ([3]; Sodium chloride 2.5%): 17000 cps
Undecylenic monoethanol amido sulfosuccinate | Not effective | 0 | Not effective | 0 | Not effective | 0 | Not effective | 0 | –
